Structures are written as SMILES.

Assay [1] concerns Influenza A virus. Description: Antiviral activity against Influenza A virus (A/Fukui/45/04(H3N2)) infected in MDCK cells assessed as reduction in plaque formation measured after 3 days post infection by neutral red staining-based assay. In kind it is functional, organism-based, Influenza A virus (A/Fukui/45/2004(H3N2)). Conditions: 72 h.
Assay [2] concerns the target Neuraminidase (Influenza A virus) (UniProt A5Z252). The note with it: Influenza A virus (A/chicken/Bangli/BBVD-563/2007(H5N1)); clade 2.
Assay [3] addresses Neuraminidase (Influenza A virus) (UniProt B4URF0). The note with it: A/chicken/Vietnam/08/2004 (H5N1) clade 1.
Another assay deals with Influenza B virus. Description: Antiviral activity against Influenza B virus (B/Perth/211/2001) infected in MDCK cells assessed as reduction in plaque formation measured after 3 days post infection by neutral red staining-based assay. Conditions: 72 h. In kind it is functional, organism-based.
In assay [4] the target is T1, Neuraminidase (Influenza A virus, UniProt B4URF0).
The target of assay [5] is T2, Neuraminidase (Influenza B virus, UniProt Q3S340). On the set-up: species or system Influenza B virus (B/Perth/211/2001).
T2 sequence (Q3S340 whole entry): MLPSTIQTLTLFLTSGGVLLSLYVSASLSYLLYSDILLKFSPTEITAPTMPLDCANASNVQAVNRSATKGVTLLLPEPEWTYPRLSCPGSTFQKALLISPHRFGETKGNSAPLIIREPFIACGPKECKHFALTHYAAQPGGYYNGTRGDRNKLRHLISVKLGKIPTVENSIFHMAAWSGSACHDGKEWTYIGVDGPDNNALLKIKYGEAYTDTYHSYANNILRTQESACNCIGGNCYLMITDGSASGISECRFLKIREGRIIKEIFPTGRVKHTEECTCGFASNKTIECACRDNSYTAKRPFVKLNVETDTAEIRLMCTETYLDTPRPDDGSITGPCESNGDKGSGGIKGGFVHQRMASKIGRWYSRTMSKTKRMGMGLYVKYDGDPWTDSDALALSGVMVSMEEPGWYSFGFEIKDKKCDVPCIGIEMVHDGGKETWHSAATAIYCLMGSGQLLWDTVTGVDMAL
In assay [6] the test system is Influenza A virus. Description: Antiviral activity against Influenza A virus (A/Victoria/503/06) infected in MDCK cells assessed as reduction in plaque formation measured after 3 days post infection by neutral red staining-based assay. Type of assay: functional, organism-based.
Assay [7] deals with Neuraminidase (Influenza A virus) (UniProt B4URF0). Conditions: A/swine/Shepparton/6/2009 (H1N1).
Assay [8] has as its target Neuraminidase (Influenza A virus (A/Memphis/1/1971(H3N2))) (UniProt P03471). Conditions: Influenza A virus (A/Fukui/45/2004(H3N2)).
In assay [9] the test system is Influenza A virus. Description: Antiviral activity against Influenza A virus (A/Mississippi/03/01 (H1N1)) infected in MDCK cells assessed as reduction in plaque formation measured after 3 days post infection by neutral red staining-based assay. In kind it is functional, organism-based. The note with it: 72 h.
In assay [10] the target is T3, Neuraminidase (Influenza A virus, UniProt A5Z252). On the set-up: species or system Influenza A virus (A/chicken/Bangli/BBVD-563/2007(H5N1)), clade 2.
Assay [11] concerns the target T1, Neuraminidase. The source holds these as a separate data set.
Assay [12] concerns the target T1, Neuraminidase. The source holds these as a separate data set.
Assay [13] addresses Neuraminidase (Influenza A virus) (UniProt B4URF0). Conditions: A/Mississippi/03/01 (H1N1).
For assay [14], the target named is T1, Neuraminidase. The source holds these as a separate data set.
In assay [15] the target is Neuraminidase (Influenza A virus (A/Memphis/1/1971(H3N2)), UniProt P03471). On the set-up: species or system Influenza A virus (A/Fukui/45/2004(H3N2)).
Neuraminidase (Influenza A virus (A/Memphis/1/1971(H3N2)), UniProt P03471), sequence (P03471 whole entry): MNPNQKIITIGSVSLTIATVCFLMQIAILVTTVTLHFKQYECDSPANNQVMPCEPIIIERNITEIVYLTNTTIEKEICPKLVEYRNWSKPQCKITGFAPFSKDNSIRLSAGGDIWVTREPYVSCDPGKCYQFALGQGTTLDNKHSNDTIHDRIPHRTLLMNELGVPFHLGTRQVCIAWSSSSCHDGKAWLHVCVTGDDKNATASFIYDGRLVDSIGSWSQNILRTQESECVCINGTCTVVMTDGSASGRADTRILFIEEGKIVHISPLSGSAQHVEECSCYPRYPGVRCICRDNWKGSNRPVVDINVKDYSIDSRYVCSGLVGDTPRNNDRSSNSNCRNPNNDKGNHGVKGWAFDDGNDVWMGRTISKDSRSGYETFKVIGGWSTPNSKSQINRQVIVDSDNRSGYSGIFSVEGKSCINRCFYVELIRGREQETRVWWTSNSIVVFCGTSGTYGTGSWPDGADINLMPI
Assay [16] addresses T1, Neuraminidase. This is another data set of the same source.
In assay [17] the target is T1, Neuraminidase. This is another data set of the same source.
For assay [18], the target named is T1, Neuraminidase. The source holds these as a separate data set.
Assay [19] deals with Neuraminidase (Influenza B virus) (UniProt Q3S340). Conditions: Influenza B virus (B/Perth/211/2001).
Neuraminidase (Influenza B virus), sequence (Q3S340 as listed by the source): as the sequence (Q3S340 whole entry) above
The target in assay [20] is T3, Neuraminidase. On the set-up: species or system Influenza A virus (A/chicken/Bangli/BBVD-563/2007(H5N1)), clade 2. The source holds these as a separate data set.
Assay [21] deals with Neuraminidase (Influenza A virus (A/Memphis/1/1971(H3N2)), UniProt P03471). On the set-up: species or system Influenza A virus (A/Fukui/45/2004(H3N2)). The source holds these as a separate data set.
The target in assay [22] is T1, Neuraminidase. The source holds these as a separate data set.
Assay [23] has as its target T2, Neuraminidase. On the set-up: species or system Influenza B virus (B/Perth/211/2001). This is another data set of the same source.
The mark [24] stands for this setting: Influenza A virus, A/Victoria/503/06, MDCK, 72 h.

Neuraminidase (Influenza A virus (A/Memphis/1/1971(H3N2))), sequence (P03471 whole entry): as the sequence (P03471 whole entry) above

By EC50 is commonly meant the concentration that produces a half-maximal response. The IC50 is the point on the concentration scale where inhibition reaches its midpoint. For the compound `CC(=O)N[C@@H]1[C@@H](O)[C@@H](F)[C@](F)(C(=O)O)O[C@H]1[C@H](O)CCO`, the EC50 was no less than 100000 nM in the assay with Influenza A virus [1], 10000 to 100000 nM in the assay on Influenza B virus, no less than 100000 nM with Influenza A virus [6] (setting [24]) and 10000 nM in the assay with Influenza A virus [9]. The T1/2 stood at 23.6 min in [2]; 19.4 min in assay [3]; 17.8 min in [7]; 25.1 min in assay [8]; 30.4 min in [13]; 186 min in assay [19]. For the same compound, the IC50 against Neuraminidase [4] came to 22400 nM; against Neuraminidase [5] it was 7620 nM; against Neuraminidase [10], 28200 nM; on Neuraminidase [11] it was 17000 nM; against Neuraminidase [12], 8290 nM; at Neuraminidase [14], 21700 nM. The IC50 in assay [15] was determined as 5010 nM; at Neuraminidase [16] it was 22000 nM; against Neuraminidase [17] it was 2610 nM; against Neuraminidase [18], 25800 nM; on Neuraminidase [20] it was 24500 nM; in assay [21] it was 28700 nM. Besides, on Neuraminidase [22], the IC50 stood at 25800 nM.

On to `CC(=O)N[C@H]1[C@H]([C@H](O)[C@H](O)CO)OC(C(=O)O)=C[C@@H]1NC(=N)N` [ZANAMIVIR], for which the EC50 in the assay on Influenza A virus [1] is 100 nM; in the assay on Influenza B virus, 10 nM; with Influenza A virus [6] (setting [24]), 0.1 to 1 nM; in the assay with Influenza A virus [9], no more than 1 nM. Further, in assay [2], the T1/2 was 72.8 min.

With `CC(=O)N[C@@H]1[C@@H](O)[C@@H](F)[C@](F)(C(=O)O)O[C@H]1[C@H](O)[C@@H](C)O`, the T1/2 in [2] was 16.9 min; in [3], 17.2 min; in assay [7], 24.5 min; in assay [8] it was 29.7 min; in [13], 37.5 min; in [19], greater than 240 min. For the same compound, the EC50 in the assay on Influenza B virus is 10000 to 100000 nM; in the assay on Influenza A virus [6] (setting [24]), no less than 100000 nM; in the assay on Influenza A virus [9] it was 10000 to 100000 nM. On Neuraminidase [5], the midpoint of inhibition, the IC50, lay at 9190 nM.

Turning to `CC(=O)N[C@@H]1[C@@H](O)[C@@H](F)[C@](F)(C(=O)O)O[C@H]1[C@H](O)[C@H](O)CO`, the EC50 in the assay with Influenza A virus [1] was 100000 nM; with Influenza B virus it was 1000 nM; with Influenza A virus [6] (setting [24]), 100000 nM; in the assay on Influenza A virus [9] it was 1000 nM. The T1/2 was determined as 8.5 min in assay [2]; 12 min in [3]; 11.8 min in assay [7]; 17.6 min in assay [8]; 24.8 min in assay [13]; 43.6 min in assay [19]. Further, the IC50 against Neuraminidase [23] worked out at 65 nM; against Neuraminidase [5], 414 nM; at Neuraminidase [10] it was 889 nM; against Neuraminidase [20], 863 nM.

For `CC(=O)N[C@@H]1C[C@@H](F)[C@](F)(C(=O)O)O[C@H]1[C@H](O)[C@H](O)CO`, the EC50 worked out at 100000 nM in the assay with Influenza A virus [1], 1000 nM in the assay with Influenza B virus, 10000 nM in the assay with Influenza A virus [6] (setting [24]) and 1000 nM with Influenza A virus [9]. Also, the T1/2 is 10.6 min in assay [2]; 13.7 min in [3]; 11.6 min in [7]; 13.4 min in [8]; 26.7 min in assay [13]; 29.2 min in assay [19]. Further, the IC50 was 27 nM at Neuraminidase [23]; 490 nM on Neuraminidase [4]; 76 nM on Neuraminidase [5]; 535 nM at Neuraminidase [10]; 1400 nM at Neuraminidase [11]; 48 nM against Neuraminidase [12]. The IC50 against Neuraminidase [14] was determined as 985 nM; in assay [15], 318 nM; against Neuraminidase [16], 490 nM; on Neuraminidase [17] it was 69 nM; against Neuraminidase [18] it was 474 nM; against Neuraminidase [20], 583 nM. In addition, the values for the IC50 (in [21]; on Neuraminidase [22]) were 313 nM and 428 nM, respectively.

For `CC(=O)N[C@@H]1[C@@H](O)[C@@H](F)[C@](F)(C(=O)O)O[C@H]1C[C@H](O)CO`, the concentration for a half-maximal effect (EC50) is 10000 to 100000 nM with Influenza A virus [1], 1000 to 10000 nM with Influenza B virus, 10000 nM in the assay with Influenza A virus [6] (mdck) and 100 to 1000 nM in the assay on Influenza A virus [9]. In addition, the T1/2 amounted to 12.3 min in assay [2]; 15 min in assay [3]; 15.8 min in assay [7]; 13.9 min in [8]; 29.2 min in assay [13]; 68.7 min in assay [19]. Besides, the IC50 against Neuraminidase [23] is 40 nM; on Neuraminidase [5], 228 nM.
